# Columns and labels:
# [1] = test system: glioblastoma line U87MG cells;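 also: U87MG cells seeded at 2000 per well, exposed 72 h, viability read by CellTiter-Glo luminescence, inhibition expressed relative to vehicle-treated wells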
# [2] = test system: ovarian cancer line SK-OV3 cells; assay: CTG (CellTiter-Glo) cell viability assay, 6×6 combo matrix, 72 h, SK-OV-3; details: for Relatively Cell inhibition of vehicle control(%): SK-OV-3;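 as to all read-outs here: luminescent signal read after CellTiter-Glo addition, cells exposed to compounds for 72 h at 37 °C under 5% CO2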
# [3] = test system: lung adenocarcinoma line A549 cells;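 also: luminescent ATP readout with CellTiter-Glo after compound exposure, used to assess growth inhibition and combination synergy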
# Method: (§1) To measure the cell inhibition effect of compounds and synergy effect of test articles on ten (10) cell lines using standard CTG assay.
# (§2) 7) Using complete cell medium, adjust the volume of the suspension to achieve a cell concentration.
# (§3) A549, T47D, SK-OV-3, MKN45, SK-Hep-1, HT-29, Capan-1, 786-O and LNCaP cell line, for compounds and vehicle groups, the seeding density of cell lines is 3000 cells/80 µL per well. For blank groups, add 100 µL medium. For PBS groups, add 100 µL PBS.
# (§4) 8) Incubate the U87MG, A549, T47D, SK-OV-3, MKN45, SK-Hep-1, HT-29, Capan-1, 786-O and LNCaP cells overnight at 37° C./5% CO2.
# (§5) Solid compound of cis-platinum was solubilized in PBS to a stock solution of 3.333 mM.
# (§6) Final volume is 100 µL per well at this point.
# (§7) 5) Incubate the plates at 37° C./5% CO2 for 72 hours.
# (§8) 1) Incubate the plates at room temperature and away from light for 30 minutes.
# (§9) 3) Add 100 µL /well of CellTiter-Glo® Reagent in each well. Avoid light.
# (§10) 4) Mix contents for 2 minutes on an orbital shaker.
# (§11) 5) Incubate plate at room temperature for 10 minutes to stabilize the luminescent signal.
# 6) Read plates in Envision.
# [4] = test system: gastric cancer line MKN45 cells;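 also: MKN45 cell viability read as CellTiter-Glo luminescence after 72 h culture at 37 °C under 5% CO2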
# Method: as §1, §2, §3, §4, §5, §6, §7, §8, §9, §10, §11
# 6) Read plates in Envision.
structure (smiles),measurement,setting,value
COc1cccc2c1C(=O)c1c(O)c3c(c(O)c1C2=O)C[C@@](O)(C(=O)CO)C[C@@H]3O[C@H]1C[C@H](N)[C@H](O)[C@H](C)O1 [doxorubicin],inhibition,[1],27.5%
O=c1c(O)c(-c2cc(O)c(O)c(O)c2)oc2cc(O)cc(O)c12 [myricetin],Relatively Cell inhibition of vehicle control(%),[2]; Myr 0.8 µM only (cisplatin matrix),2.08%
same,Relatively Cell inhibition of vehicle control(%),[2]; Myr 0.8 µM only (doxorubicin matrix),0.36%
same,Relatively Cell inhibition of vehicle control(%),[2]; Myr 0.8 µM only (taxol matrix),0.71%
same,Relatively Cell inhibition of vehicle control(%),[2]; Myr 0.8 µM only (topotecan matrix),4.27%
same,Relatively Cell inhibition of vehicle control(%),[2]; Myr 4 µM only (cisplatin matrix),2.94%
same,Relatively Cell inhibition of vehicle control(%),[2]; Myr 4 µM only (doxorubicin matrix),1.70%
same,Relatively Cell inhibition of vehicle control(%),[2]; Myr 4 µM only (taxol matrix),0.87%
same,Relatively Cell inhibition of vehicle control(%),[2]; Myr 4 µM only (topotecan matrix),3.31%
same,Relatively Cell inhibition of vehicle control(%),[2]; Myr 20 µM only (cisplatin matrix),9.41%
same,Relatively Cell inhibition of vehicle control(%),[2]; Myr 20 µM only (doxorubicin matrix),1.89%
same,Relatively Cell inhibition of vehicle control(%),[2]; Myr 20 µM only (taxol matrix),7.54%
same,Relatively Cell inhibition of vehicle control(%),[2]; Myr 20 µM only (topotecan matrix),0.29%
same,Relatively Cell inhibition of vehicle control(%),[2]; Myr 100 µM only (cisplatin matrix),89.47%
same,Relatively Cell inhibition of vehicle control(%),[2]; Myr 100 µM only (doxorubicin matrix),91.33%
same,Relatively Cell inhibition of vehicle control(%),[2]; Myr 100 µM only (taxol matrix),87.91%
same,Relatively Cell inhibition of vehicle control(%),[2]; Myr 100 µM only (topotecan matrix),87.18%
"CC(=O)O[C@H]1C(=O)[C@@]2(C)[C@H]([C@H](OC(=O)c3ccccc3)[C@]3(O)C[C@H](OC(=O)[C@H](O)[C@@H](NC(=O)c4ccccc4)c4ccccc4)C(C)=C1C3(C)C)[C@]1(OC(C)=O)CO[C@@H]1C[C@@H]2O [taxol, paclitaxel]",inhibition,[1],5.92%
same,inhibition,[3],13.7%
same,Relatively Cell inhibition of vehicle control(%),[2]; Tax 8 nM only (LB-1 matrix),41.59%
same,Relatively Cell inhibition of vehicle control(%),[2]; Tax 8 nM only (myricetin matrix),39.88%
same,Relatively Cell inhibition of vehicle control(%),[2]; Tax 40 nM only (LB-1 matrix),54.31%
same,Relatively Cell inhibition of vehicle control(%),[2]; Tax 40 nM only (myricetin matrix),52.55%
same,Relatively Cell inhibition of vehicle control(%),[2]; Tax 200 nM only (LB-1 matrix),71.38%
same,Relatively Cell inhibition of vehicle control(%),[2]; Tax 200 nM only (myricetin matrix),68.68%
same,Relatively Cell inhibition of vehicle control(%),[2]; Tax 1000 nM only (LB-1 matrix),76.39%
same,Relatively Cell inhibition of vehicle control(%),[2]; Tax 1000 nM only (myricetin matrix),73.38%
same,inhibition,[4],35.1%
CC[C@@]1(O)C(=O)OCc2c1cc1n(c2=O)Cc2cc3c(CN(C)C)c(O)ccc3nc2-1 [topotecan],inhibition at 1 µM,"[2]; Homo sapiens, SK-OV-3, read-out: inhibition rate",93.9%
same,Relatively Cell inhibition of vehicle control(%),[2]; Top 16 nM only (myricetin matrix),21.67%
same,Relatively Cell inhibition of vehicle control(%),[2]; Top 80 nM only (LB-1 matrix),68.74%
same,Relatively Cell inhibition of vehicle control(%),[2]; Top 80 nM only (myricetin matrix),67.77%
same,Relatively Cell inhibition of vehicle control(%),[2]; Top 400 nM only (LB-1 matrix),83.70%
same,Relatively Cell inhibition of vehicle control(%),[2]; Top 400 nM only (myricetin matrix),82.50%
same,Relatively Cell inhibition of vehicle control(%),[2]; Top 2000 nM only (LB-1 matrix),90.55%
same,Relatively Cell inhibition of vehicle control(%),[2]; Top 2000 nM only (myricetin matrix),90.97%
same,Relatively Cell inhibition of vehicle control(%),[2]; Top 10000 nM only (myricetin matrix),94.18%
same,inhibition,[4],14.9%

# — patent US20230165831A1, “METHOD AND COMPOSITION FOR RENDERING CANCER CELLS SUSCEPTIBLE TO TREATMENT BY TARGETED ONCOGENETIC DRIVERS” (IMPACT BIOLIFE SCIENCE, INC., priority 2021, published 2023)
